Test results taken from patent US20220096487A1 (priority 2019, published 2022).
“Also recorded” adds a separate entry of the source.

Legend:
[1] = Carcinogenicity studies in mice; settings: two-year study, doses up to 500 mg/kg, highest dose tested
MATE1 = MATE1 (Homo sapiens, UniProt Q96FL8); assay: In vitro inhibition of MATE1; format: in vitro ADME
UGT2B7 = UGT2B7 (Homo sapiens, UniProt P16662); assay: In vitro inhibition of UGT2B7; format: in vitro ADME; settings: did not inhibit
OAT3 = OAT3 (Homo sapiens, UniProt Q8TCC7); assay: In vitro inhibition of OAT3; format: in vitro ADME
[2] = Multiple-dose pharmacokinetic properties (Table 7); format: in vivo, human; settings: population PK, ART treatment-naive adults, 50 mg dolutegravir once daily
[3] = Plasma protein binding in vitro; format: in vitro ADME; settings: human, human plasma proteins, read-out: % Bound to human plasma proteins (converted)
[4] = cited from earlier work
[5] = test system: INSTI-resistant site-directed mutant HIV-1 viruses; assay: Susceptibility against INSTI-resistant site-directed mutant viruses; format: cell-based
[6] = In vivo rodent micronucleus assay
CYP2B6 [7] = target: CYP2B6 (Homo sapiens, UniProt P20813); assay: In vitro inhibition of CYP2B6; format: in vitro ADME; settings: did not inhibit
CYP1A2 = assay: In vitro induction of CYP1A2; format: in vitro ADME
CYP2A6 = CYP2A6 (Homo sapiens, UniProt P11509); assay: In vitro inhibition of CYP2A6; format: in vitro ADME; settings: did not inhibit
P-gp = P-gp (Homo sapiens, UniProt P08183); assay: In vitro substrate assessment, P-gp; format: in vitro ADME
UGT1A1 = UGT1A1 (Homo sapiens, UniProt P22309); assay: In vitro inhibition of UGT1A1; format: in vitro ADME; settings: did not inhibit
[8] = target: organic anion transporter (OAT)1 (Homo sapiens, UniProt Q4U2R8); assay: In vitro inhibition of OAT1; format: in vitro ADME
CYP2B6 [9] = assay: In vitro induction of CYP2B6; format: in vitro ADME
OCT1 = OCT1 (Homo sapiens, UniProt O15245); assay: In vitro inhibition of OCT1; format: in vitro ADME; settings: did not inhibit
[10] = Excretion into milk of lactating rats; format: in vivo; settings: female, rat, milk / maternal plasma; single oral dose of 50 mg/kg on lactation Day 10; 8 hours postdose; read-out: Milk concentration relative to maternal plasma concentration
[11] = Established and other potentially significant drug interactions for dolutegravir (Table 5); format: in vivo, human
Description: These recommendations are based on either drug interaction trials or predicted interactions due to the expected magnitude of interaction and potential for serious adverse events or loss of efficacy [see Contraindications (4), Clinical Pharmacology (12.3)].

CYP3A4 = assay: In vitro induction of CYP3A4; format: in vitro ADME
[12] = Thorough QT trial in healthy subjects; format: in vivo, human
CYP3A = assay: In vitro inhibition of CYP3A; format: in vitro ADME; settings: human, did not inhibit
UGT1A3 = UGT1A3 (Homo sapiens, UniProt P35503); assay: In vitro substrate assessment, UGT1A3; format: in vitro ADME
[13] = test system: 13 clinically diverse clade B isolates; assay: Viral integrase susceptibility assay using integrase coding region from clinical isolates; format: cell-based, HIV-1; settings: Human immunodeficiency virus 1; 13 clade B isolates
[14] = target: organic anion transporter polypeptide (OATP)1B1 (Homo sapiens, UniProt Q9Y6L6); assay: In vitro inhibition of OATP1B1; format: in vitro ADME; settings: did not inhibit
OATP1B3 = OATP1B3 (Homo sapiens, UniProt Q9NPD5); assay: In vitro substrate assessment, OATP1B3; format: in vitro ADME
HIV-2 clinical isolates = assay: Dolutegravir PBMC assays against HIV-2 clinical isolates; format: cell-based; settings: Human immunodeficiency virus 2, three HIV-2 clinical isolates
OATP1B1 = OATP1B1 (Homo sapiens, UniProt Q9Y6L6); assay: In vitro substrate assessment, OATP1B1; format: in vitro ADME
[15] = Pharmacokinetic properties of the components (Table 6); format: in vivo, human; settings: in vivo

Sequence of organic anion transporter (OAT)1 (Q4U2R8 whole entry): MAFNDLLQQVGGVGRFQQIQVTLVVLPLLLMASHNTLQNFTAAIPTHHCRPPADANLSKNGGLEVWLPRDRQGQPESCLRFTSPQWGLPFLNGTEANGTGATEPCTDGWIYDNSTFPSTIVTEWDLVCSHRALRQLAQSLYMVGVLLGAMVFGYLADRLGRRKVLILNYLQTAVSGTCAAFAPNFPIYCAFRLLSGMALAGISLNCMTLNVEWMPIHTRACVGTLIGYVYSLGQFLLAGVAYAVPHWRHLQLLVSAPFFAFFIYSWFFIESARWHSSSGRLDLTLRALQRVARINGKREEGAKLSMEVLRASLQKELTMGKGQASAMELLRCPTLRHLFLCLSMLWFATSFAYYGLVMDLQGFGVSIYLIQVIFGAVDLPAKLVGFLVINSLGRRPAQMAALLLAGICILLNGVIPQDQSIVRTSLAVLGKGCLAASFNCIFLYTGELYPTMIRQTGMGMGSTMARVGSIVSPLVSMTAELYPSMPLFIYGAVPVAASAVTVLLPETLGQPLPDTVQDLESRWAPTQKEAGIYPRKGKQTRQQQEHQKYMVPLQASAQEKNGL
Sequence of UGT1A3 (P35503 29-534): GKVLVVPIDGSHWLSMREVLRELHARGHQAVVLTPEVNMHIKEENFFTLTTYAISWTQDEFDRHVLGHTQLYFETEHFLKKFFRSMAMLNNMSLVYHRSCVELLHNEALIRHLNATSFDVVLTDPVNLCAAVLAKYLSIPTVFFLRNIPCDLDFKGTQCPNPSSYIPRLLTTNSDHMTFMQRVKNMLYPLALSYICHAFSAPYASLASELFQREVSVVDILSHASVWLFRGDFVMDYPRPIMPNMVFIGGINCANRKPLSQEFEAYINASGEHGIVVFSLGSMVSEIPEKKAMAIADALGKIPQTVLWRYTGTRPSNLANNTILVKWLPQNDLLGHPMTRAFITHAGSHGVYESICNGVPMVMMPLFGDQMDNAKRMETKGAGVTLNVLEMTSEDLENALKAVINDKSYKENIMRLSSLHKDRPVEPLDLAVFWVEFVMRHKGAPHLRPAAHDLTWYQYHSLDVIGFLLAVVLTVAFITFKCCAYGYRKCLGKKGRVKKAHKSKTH
Sequence of UGT1A1 (P22309 26-533): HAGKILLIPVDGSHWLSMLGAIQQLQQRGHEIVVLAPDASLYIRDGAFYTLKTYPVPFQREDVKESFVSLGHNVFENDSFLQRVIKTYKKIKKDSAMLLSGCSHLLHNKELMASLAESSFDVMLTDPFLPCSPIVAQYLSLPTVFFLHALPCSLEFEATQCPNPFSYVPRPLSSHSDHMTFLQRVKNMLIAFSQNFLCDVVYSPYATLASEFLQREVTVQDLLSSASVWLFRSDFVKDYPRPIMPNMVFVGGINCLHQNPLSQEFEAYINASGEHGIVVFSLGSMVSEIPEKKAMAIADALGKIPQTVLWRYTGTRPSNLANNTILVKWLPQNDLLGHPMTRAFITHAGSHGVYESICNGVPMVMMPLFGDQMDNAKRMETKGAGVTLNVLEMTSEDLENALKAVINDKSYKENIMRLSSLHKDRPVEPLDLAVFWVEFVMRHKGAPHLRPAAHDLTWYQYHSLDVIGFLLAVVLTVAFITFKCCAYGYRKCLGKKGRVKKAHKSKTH
Sequence of OATP1B3 (Q9NPD5 whole entry): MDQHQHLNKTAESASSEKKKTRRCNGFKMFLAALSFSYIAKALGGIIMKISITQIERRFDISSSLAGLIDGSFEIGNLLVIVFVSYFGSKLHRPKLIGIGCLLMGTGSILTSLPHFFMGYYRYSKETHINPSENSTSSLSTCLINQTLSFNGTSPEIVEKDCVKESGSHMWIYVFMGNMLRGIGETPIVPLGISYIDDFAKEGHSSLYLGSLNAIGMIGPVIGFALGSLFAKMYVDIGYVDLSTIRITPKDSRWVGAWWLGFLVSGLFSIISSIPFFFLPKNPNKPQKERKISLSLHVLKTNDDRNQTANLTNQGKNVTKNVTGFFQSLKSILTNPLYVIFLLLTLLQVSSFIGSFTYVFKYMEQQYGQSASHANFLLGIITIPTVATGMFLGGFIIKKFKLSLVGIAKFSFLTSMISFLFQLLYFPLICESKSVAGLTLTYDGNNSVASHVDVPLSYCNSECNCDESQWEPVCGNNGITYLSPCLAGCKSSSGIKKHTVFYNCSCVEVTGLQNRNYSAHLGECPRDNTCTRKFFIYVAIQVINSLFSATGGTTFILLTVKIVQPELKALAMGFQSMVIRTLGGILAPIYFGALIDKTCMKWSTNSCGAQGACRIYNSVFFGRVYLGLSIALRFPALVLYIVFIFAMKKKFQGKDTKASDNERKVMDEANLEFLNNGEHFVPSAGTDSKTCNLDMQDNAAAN
Sequence of organic anion transporter polypeptide (OATP)1B1 (Q9Y6L6 whole entry): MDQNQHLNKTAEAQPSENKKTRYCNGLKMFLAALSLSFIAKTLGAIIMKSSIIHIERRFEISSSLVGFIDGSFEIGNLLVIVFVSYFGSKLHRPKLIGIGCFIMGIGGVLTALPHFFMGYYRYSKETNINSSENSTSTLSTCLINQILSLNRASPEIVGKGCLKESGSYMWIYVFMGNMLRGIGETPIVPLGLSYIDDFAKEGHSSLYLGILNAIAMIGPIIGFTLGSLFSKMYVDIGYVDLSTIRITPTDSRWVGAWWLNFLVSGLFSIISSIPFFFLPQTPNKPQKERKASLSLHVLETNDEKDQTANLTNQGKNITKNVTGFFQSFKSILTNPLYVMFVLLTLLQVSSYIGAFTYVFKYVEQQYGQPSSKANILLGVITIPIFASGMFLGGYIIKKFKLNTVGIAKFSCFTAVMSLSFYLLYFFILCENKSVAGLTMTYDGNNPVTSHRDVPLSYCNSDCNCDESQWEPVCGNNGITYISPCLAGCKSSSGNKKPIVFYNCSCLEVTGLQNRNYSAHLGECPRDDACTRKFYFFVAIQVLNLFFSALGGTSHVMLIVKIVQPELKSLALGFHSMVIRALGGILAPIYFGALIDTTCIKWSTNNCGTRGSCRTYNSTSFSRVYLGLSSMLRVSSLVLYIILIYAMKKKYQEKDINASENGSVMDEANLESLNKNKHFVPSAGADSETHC
Sequence of OATP1B1 (Q9Y6L6 whole entry): as above
Sequence of OAT3 (Q8TCC7 whole entry): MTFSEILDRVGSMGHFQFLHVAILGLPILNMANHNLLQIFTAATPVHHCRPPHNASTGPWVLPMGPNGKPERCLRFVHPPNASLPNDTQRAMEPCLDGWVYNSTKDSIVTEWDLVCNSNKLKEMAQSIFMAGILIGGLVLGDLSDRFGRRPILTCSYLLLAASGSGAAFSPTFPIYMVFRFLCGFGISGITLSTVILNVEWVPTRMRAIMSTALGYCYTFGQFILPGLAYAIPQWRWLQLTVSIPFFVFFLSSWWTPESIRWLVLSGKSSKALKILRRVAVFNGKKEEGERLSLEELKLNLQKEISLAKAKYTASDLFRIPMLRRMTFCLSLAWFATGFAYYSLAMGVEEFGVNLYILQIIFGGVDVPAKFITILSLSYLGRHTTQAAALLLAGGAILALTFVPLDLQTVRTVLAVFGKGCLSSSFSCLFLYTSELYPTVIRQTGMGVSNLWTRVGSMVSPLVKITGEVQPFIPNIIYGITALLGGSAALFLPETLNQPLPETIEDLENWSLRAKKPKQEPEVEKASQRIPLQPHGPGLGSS
Sequence of MATE1 (Q96FL8 whole entry): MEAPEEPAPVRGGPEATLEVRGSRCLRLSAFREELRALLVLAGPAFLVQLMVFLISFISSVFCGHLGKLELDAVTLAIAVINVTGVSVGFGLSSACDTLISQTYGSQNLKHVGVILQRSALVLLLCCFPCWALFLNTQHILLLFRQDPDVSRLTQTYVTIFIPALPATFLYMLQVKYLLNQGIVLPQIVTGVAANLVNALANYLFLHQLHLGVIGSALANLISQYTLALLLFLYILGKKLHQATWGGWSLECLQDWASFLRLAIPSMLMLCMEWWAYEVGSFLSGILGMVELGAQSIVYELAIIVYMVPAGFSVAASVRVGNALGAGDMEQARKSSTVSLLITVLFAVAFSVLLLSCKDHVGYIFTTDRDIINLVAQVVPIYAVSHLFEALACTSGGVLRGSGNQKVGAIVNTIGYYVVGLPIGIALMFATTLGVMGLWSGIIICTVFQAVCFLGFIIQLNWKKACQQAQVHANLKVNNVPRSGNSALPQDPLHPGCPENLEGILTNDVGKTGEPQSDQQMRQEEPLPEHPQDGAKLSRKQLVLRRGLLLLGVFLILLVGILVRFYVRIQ
Sequence of UGT2B7 (P16662 24-529): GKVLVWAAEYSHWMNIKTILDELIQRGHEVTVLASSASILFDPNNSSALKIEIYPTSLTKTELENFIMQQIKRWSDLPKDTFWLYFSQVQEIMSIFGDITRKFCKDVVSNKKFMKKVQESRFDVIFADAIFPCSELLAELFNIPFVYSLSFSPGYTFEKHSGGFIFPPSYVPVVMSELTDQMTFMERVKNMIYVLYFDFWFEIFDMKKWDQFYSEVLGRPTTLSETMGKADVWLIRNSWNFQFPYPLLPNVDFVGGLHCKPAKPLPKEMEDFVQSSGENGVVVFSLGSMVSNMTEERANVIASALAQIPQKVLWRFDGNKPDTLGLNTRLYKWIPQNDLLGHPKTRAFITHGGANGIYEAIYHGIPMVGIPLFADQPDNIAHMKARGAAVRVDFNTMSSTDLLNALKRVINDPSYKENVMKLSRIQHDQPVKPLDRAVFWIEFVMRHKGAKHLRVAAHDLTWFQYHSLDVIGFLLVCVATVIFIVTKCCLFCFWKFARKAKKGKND

Question: For `C[C@@H]1CCO[C@H]2Cn3cc(C(=O)NCc4ccc(F)cc4F)c(=O)c(O)c3C(=O)N12` [Dolutegravir, dolutegravir], which “AUC exposure multiple of human (50 mg once daily) with no significant increases in drug-related neoplasms” value [1] is on record?
Answer: approximately 20 fold

Question: What about the IC50 (MATE1) of the same compound?
Answer: 6.34 µM

Question: What about the IC50 (UGT2B7) of the same compound?
Answer: > 50 µM

Question: And the IC50 (OAT3)?
Answer: 1.97 µM

Question: And the “AUCtau, Mean (CV %)” value [2]?
Answer: 53.6 (27%) mcg/h/mL

Question: What about the “Cmax, Mean (CV %)” value [2] of the same compound?
Answer: 3.67 (20%) mcg/mL

Question: What about the “Ctrough, Mean (CV %)” value [2] of the same compound?
Answer: 1.11 (46%) mcg/mL

Question: What about the fraction unbound [3] of the same compound?
Answer: ~0.01

Question: And the “Neural tube defects, % of births” value ([4]; mothers exposed to dolutegravir-containing regimens at the time of conception, 4 of 426 births)?
Answer: 0.94%

Question: What about the “Neural tube defect in infants” value ([4]; women who started dolutegravir during pregnancy (n=2,812)) of the same compound?
Answer: No infant

Question: And the “Decrease in dolutegravir susceptibility from reference” value ([5]; multiple substitutions T66K/L74M, E92Q/N155H, G140C/Q148R, G140S/Q148H, R or K, Q148R/N155H, T97A/G140S/Q148, E138/G140/Q148)?
Answer: > 2 fold

Question: And the “Decrease in dolutegravir susceptibility from reference” value ([5]; single INSTI-resistance substitutions T66K, I151L, and S153Y)?
Answer: > 2 fold

Question: And the “Genotoxicity, in vivo rodent micronucleus assay” value [6]?
Answer: not genotoxic

Question: And the IC50 (CYP2B6 [7])?
Answer: > 50 µM

Question: What about the “Induction of CYP1A2” value (CYP1A2) of the same compound?
Answer: did not induce

Question: What about the IC50 (CYP2A6) of the same compound?
Answer: > 50 µM

Question: What about the “Substrate of P-gp” value (P-gp) of the same compound?
Answer: substrate

Question: And the IC50 (UGT1A1)?
Answer: > 50 µM

Question: What about the IC50 [8] of the same compound?
Answer: 2.12 µM

Question: And the “Induction of CYP2B6” value (CYP2B6 [9])?
Answer: did not induce

Question: What about the IC50 (OCT1) of the same compound?
Answer: > 50 µM

Question: What about the Kp at 8 h [10] of the same compound?
Answer: ≤ 1.3

Question: What about the “Effect on Concentration of dolutegravir” value ([11]; concomitant Carbamazepine) of the same compound?
Answer: ↓Dolutegravir

Question: What about the “Effect on Concentration of dolutegravir” value ([11]; concomitant Oxcarbazepine, Phenytoin, Phenobarbital, trial or predicted interaction) of the same compound?
Answer: ↓Dolutegravir

Question: What about the “Effect on Concentration of dolutegravir” value ([11]; concomitant Rifampin) of the same compound?
Answer: ↓Dolutegravir

Question: What about the “Effect on Concentration of dolutegravir” value ([11]; concomitant St. John's wort (Hypericum perforatum), trial or predicted interaction) of the same compound?
Answer: ↓Dolutegravir

Question: What about the “Effect on Concentration of dolutegravir” value ([11]; concomitant medications containing polyvalent cations (antacids, laxatives, sucralfate, buffered medications)) of the same compound?
Answer: ↓Dolutegravir

Question: What about the “Effect on Concentration of dolutegravir” value ([11]; concomitant oral calcium and iron supplements, including multivitamins) of the same compound?
Answer: ↓Dolutegravir

Question: And the “Induction of CYP3A4” value (CYP3A4)?
Answer: did not induce

Question: What about the “Maximum mean QTc change (QTcF)” value ([12]; dolutegravir 250-mg suspension single dose, baseline and placebo adjusted) of the same compound?
Answer: 2.4 ms

Question: What about the QTc interval prolongation ([12]; over 24 hours postdose) of the same compound?
Answer: did not prolong

Question: What about the IC50 (CYP3A) of the same compound?
Answer: > 50 µM

Question: What about the “Substrate of UGT1A3” value (UGT1A3) of the same compound?
Answer: substrate

Question: And the EC50 [13]?
Answer: 0.00052 µM

Question: What about the IC50 [14] of the same compound?
Answer: > 50 µM

Question: What about the “Substrate of OATP1B3” value (OATP1B3) of the same compound?
Answer: not a substrate

Question: What about the EC50 (HIV-2 clinical isolates) of the same compound?
Answer: 90 to 610 pM

Question: What about the “Substrate of OATP1B1” value (OATP1B1) of the same compound?
Answer: not a substrate

Question: What about the half-life ([15]; human) of the same compound?
Answer: ~14 h

Question: What about the “Major route of elimination” value [15] of the same compound?
Answer: Metabolism

Question: What about the Metabolic pathways [15] of the same compound?
Answer: UGT1A1; also recorded: CYP3A (minor)

Question: And the “Tmax, median” value [15]?
Answer: 2.5 h
